Data published in US20140228303A1, “NOVEL SGLT INHIBITORS” (Panacea Biotec Ltd, priority 2011, published 2014).

What was measured:
[1] = test system: C57BL/6J mice; test: Estimation of urinary glucose in C57BL/6J mice; assay type: in vivo, mouse; conditions: urine collected over 24 h
Experimental: Estimation of Urinary Glucose in C57BL/6J Mice
C57BL/6J mice were fasted 4 h before drug treatment. Fasted mice were weighed and randomized into different groups based on their body weight (n=6). At time T0 test compounds and standard compounds suspended in 0.25% CMC or PEG 400 formulation, were administered to respective groups and kept in metabolic cages (6 mice/cage) after dosing. Animals were fed after drug administration and urine was collected over a period of 24 h. Urinary volume was measured and urinary glucose was estimated using Merckotest Glucose Reagent (Merck Specialities Pvt. Ltd., India).

[2] = test system: Rats; test: Estimation of urinary glucose in rat; assay type: in vivo; conditions: urine collected over 24 hrs
Experimental: Estimation of Urinary Glucose in Rat
Rats were fasted overnight (14 hrs) before drug treatment. Fasted rats were weighed and randomized into different groups based on their body weight (n=4). At time To test compounds and standard compound suspended in 0.25% C.M.C. or PEG 400 formulation were administered to respective groups and kept the animals in metabolic cages (1 rat/cage) after dosing. Animals were fed after drug administration and urine was collected over a period of 24 hrs. Urine volume was measured and urinary glucose was estimated using Merckotest Glucose Reagent (Merck Specialities Pvt. Ltd., India).

[3] = target: T1, human SGLT-1 (Homo sapiens, UniProt P13866); test: Methyl-α-D-[U-14C]Glucopyranoside uptake assay for SGLT-1 in CHO-K1 cells expressing hSGLT-1; assay type: cell-based; conditions: N.E. = Not Effective
T1 construct: Full-length human SGLT-1 cDNA in the pCMV-XL-Neo expression vector was obtained from Origene Corporation
T1 sequence (P13866 1-664): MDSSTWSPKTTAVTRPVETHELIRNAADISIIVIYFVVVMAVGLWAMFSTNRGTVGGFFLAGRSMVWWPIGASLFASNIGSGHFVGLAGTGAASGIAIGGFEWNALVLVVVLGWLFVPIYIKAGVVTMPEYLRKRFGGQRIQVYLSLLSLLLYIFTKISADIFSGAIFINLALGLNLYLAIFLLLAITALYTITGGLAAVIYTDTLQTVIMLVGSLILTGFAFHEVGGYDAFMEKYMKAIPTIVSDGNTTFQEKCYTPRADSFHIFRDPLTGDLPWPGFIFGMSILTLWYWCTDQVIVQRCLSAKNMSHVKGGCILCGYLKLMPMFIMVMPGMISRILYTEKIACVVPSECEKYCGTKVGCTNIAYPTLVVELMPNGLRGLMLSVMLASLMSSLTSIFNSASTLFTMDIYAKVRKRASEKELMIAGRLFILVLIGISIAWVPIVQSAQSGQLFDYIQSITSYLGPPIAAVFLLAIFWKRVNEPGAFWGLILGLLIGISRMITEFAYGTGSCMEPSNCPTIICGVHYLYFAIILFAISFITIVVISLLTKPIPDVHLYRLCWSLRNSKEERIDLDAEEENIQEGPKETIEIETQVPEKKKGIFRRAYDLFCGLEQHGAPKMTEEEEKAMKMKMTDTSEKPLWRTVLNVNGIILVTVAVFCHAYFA
Experimental: Preparation of Human SGLT-1 Expressing Cells
Full-length human SGLT-1 cDNA in the pCMV-XL-Neo expression vector was obtained from Origene Corporation and propagated in Escherichia coli strain DH5α using Luria-Bertani (LB) medium containing ampicillin. […] Stably transfected cells were selected using G418 antibiotic selection pressure.
Methyl-α-D-[U-^14C]Glucopyranoside Uptake Assay for SGLT-1
(§1) Cells expressing hSGLT-1 were seeded on 96-well tissue culture plates (Greiner, Inc.) in RPMI containing 10% FBS and 800 μg/ml G418 (0.8×10^5 cells per well in 200 μL medium) and incubated at 37° C. under 5% carbon dioxide for 24 h prior to the assay. Cells were washed twice with 200 μL of either sodium buffer (140 mM NaCl, 4.7 mM KCl, 2.2 mM CaCl2, 1.2 mM MgCl2, 10 mM Tris/Hepes, pH 7.4) or sodium-free buffer (137 mM N-methyl-glucamine, 4.7 mM KCl, 2.2 mM CaCl2, 1.2 mM MgCl2, 10 mM Tris/Hepes, pH 7.4). Reaction mixture containing test compounds diluted in assay buffer, 1 mM unlabeled Methyl-α-D-glucopyranoside and 1 μCi/well methyl-α-D-[U-^14C]glucopyranoside (American Radiochemicals) was added per well of a 96-well plate and incubated at 37° C. for 1 h. Cells were washed thrice with 200 μL of wash buffer (140 mM NaCl, 4.7 mM KCl, 2.2 mM CaCl2, 1.2 mM MgCl2, 10 mM Tris/Hepes, pH 7.4 containing 500 μM phlorizin) and lysed using 50 μL of 0.25N NaOH. Methyl-α-D-[U-^14C]glucopyranoside uptake was quantitated using a Top count scintillation counter (PerkinElmer, Inc.). All the test compounds were assayed in triplicates.

[4] = target: T2, mouse SGLT-2 (Mus musculus, UniProt Q923I7); test: Methyl-α-D-[U-14C]Glucopyranoside uptake assay for SGLT-2 in CHO-K1 cells expressing mSGLT-2; assay type: cell-based; conditions: N.E. = Not Effective
T2 construct: Full-length mouse SGLT-2 cDNA was amplified from C57BL/6J mouse kidneys and introduced in the pcDNA3.1(+) expression vector; expressed in transfected cells
T2 sequence (Q923I7 1-670): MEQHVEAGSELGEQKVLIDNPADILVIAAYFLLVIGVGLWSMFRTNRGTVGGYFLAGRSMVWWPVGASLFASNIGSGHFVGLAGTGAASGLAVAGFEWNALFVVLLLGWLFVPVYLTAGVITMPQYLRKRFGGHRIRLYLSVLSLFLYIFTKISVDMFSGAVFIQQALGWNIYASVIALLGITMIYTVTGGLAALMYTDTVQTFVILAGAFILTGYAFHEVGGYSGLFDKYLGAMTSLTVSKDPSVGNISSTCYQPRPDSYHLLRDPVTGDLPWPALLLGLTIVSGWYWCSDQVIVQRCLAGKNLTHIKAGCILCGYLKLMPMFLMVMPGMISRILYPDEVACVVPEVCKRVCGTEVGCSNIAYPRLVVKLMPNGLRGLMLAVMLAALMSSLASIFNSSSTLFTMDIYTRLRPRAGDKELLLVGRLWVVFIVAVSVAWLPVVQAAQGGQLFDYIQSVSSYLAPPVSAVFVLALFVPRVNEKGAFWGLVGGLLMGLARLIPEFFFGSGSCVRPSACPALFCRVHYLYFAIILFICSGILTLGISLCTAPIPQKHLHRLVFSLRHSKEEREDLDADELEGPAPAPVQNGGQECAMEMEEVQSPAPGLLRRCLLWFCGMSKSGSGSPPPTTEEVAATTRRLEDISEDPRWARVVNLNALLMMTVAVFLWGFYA
Experimental: Preparation of Mouse SGLT-2 Expressing Cells
Full-length mouse SGLT-2 cDNA was amplified from C57BL/6J mouse kidneys and introduced in the pcDNA3.1(+) expression vector (Invitrogen, Inc.) and propagated in Escherichia coli strain DH5α using Luria-Bertani (LB) medium containing ampicillin. […] Stably transfected cells were selected using G418 antibiotic selection pressure.
Methyl-α-D-[U-^14C]Glucopyranoside Uptake Assay for SGLT-2
as §1, with “Cells expressing mSGLT-2 were seeded” for “Cells expressing hSGLT-1 were seeded”, “FBS and 400 μg/mL G418 (0.8×10^5” for “FBS and 800 μg/ml G418 (0.8×10^5”, “test compounds at different concentrations diluted in” for “test compounds diluted in”, “assay buffer, 0.1 mM unlabeled” for “assay buffer, 1 mM unlabeled”, “1 μCi/well methyl-α-D[U-^14C]glucopyranoside (American Radiochemicals)” for “1 μCi/well methyl-α-D-[U-^14C]glucopyranoside (American Radiochemicals)”, “0.25N NaOH. Methyl-α-D[U-^14C]glucopyranoside uptake was” for “0.25N NaOH. Methyl-α-D-[U-^14C]glucopyranoside uptake was”

- % inhibition of Methyl-α-D-[U-14C] Glucopyranoside uptake (CHO-K1 cells) mediated by SGLT-1 ([3]; 100 nM compound): N.E.
- % inhibition of Methyl-α-D-[U-14C] Glucopyranoside uptake (CHO-K1 cells) mediated by SGLT-1 ([3]; 1 μM compound): N.E.
- % inhibition of Methyl-α-D-[U-14C] Glucopyranoside uptake (CHO-K1 cells) mediated by SGLT-1 ([3]; 10 μM compound): 63.64%
- % inhibition of Methyl-α-D-[U-14C] Glucopyranoside uptake (CHO-K1 cells) mediated by SGLT-2 ([4]; 0.1 nM compound): 26.42%
- % inhibition of Methyl-α-D-[U-14C] Glucopyranoside uptake (CHO-K1 cells) mediated by SGLT-2 ([4]; 1 nM compound): 26.10%
- % inhibition of Methyl-α-D-[U-14C] Glucopyranoside uptake (CHO-K1 cells) mediated by SGLT-2 ([4]; 10 nM compound): 59.52%
- % inhibition of Methyl-α-D-[U-14C] Glucopyranoside uptake (CHO-K1 cells) mediated by SGLT-2 ([4]; 100 nM compound): 93.34%
Substance: 1-(4-(2-chloro-5-((1S,2S,3S,4R,5S)-2,3,4-trihydroxy-1-(hydroxymethyl)-6,8-dioxabicyclo[3.2.1]octan-5-yl)benzyl)phenyl)propan-1-one O-methyl oxime [Compound 3]
- UGE in mice (in mg/g of feed consumed) at 3 mpk [1]: 81.9 mg/g of feed consumed
- UGE in rat (in mg/g of feed consumed) at 3 mpk [2]: 67.4 mg/g of feed consumed
